Data taken from ChEMBL document CHEMBL1201862, “PubChem BioAssay data set” (2004).
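Results reflect a 48-hour exposure of cells in 96-well plates to compound at five concentrations. GI50: concentration for 50% inhibition of growth.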 Activity calls are given as the source filed them. No stated cut-off is given here; in the data, active = GI50 up to about 1.1 µM and inactive = higher.

What was measured:
Assay in all cases: NCI tumour cell line growth inhibition, 48 h
[1] = tested on: OVCAR-5
[2] = tested on: ACHN
[3] = tested on: OVCAR-3
[4] = tested on: IGROV-1
[5] = tested on: NCI-H460
[6] = tested on: RXF 393
[7] = tested on: HCT-116
[8] = tested on: CCRF-CEM
[9] = tested on: Hs-578T
[10] = tested on: 786-0
[11] = tested on: M14
[12] = tested on: TK-10
[13] = tested on: K562
[14] = tested on: SNB-19
[15] = tested on: UACC-257
[16] = tested on: COLO 205
[17] = tested on: SK-MEL-2
[18] = tested on: UO-31
[19] = tested on: MDA-MB-435
[20] = tested on: SF-295
[21] = tested on: HL-60
[22] = tested on: Malme-3M
[23] = tested on: NCI/ADR-RES
[24] = tested on: NCI-H23
[25] = tested on: U-251
[26] = tested on: HOP-62
[27] = tested on: MDA-MB-231
[28] = tested on: SK-OV-3
[29] = tested on: HOP-92
[30] = tested on: A549
[31] = tested on: LOX IMVI
[32] = tested on: DU-145
[33] = tested on: MDA-N
[34] = tested on: A498
[35] = tested on: RPMI-8226
[36] = tested on: CAKI-1
[37] = tested on: SR
[38] = tested on: KM12
[39] = tested on: SW-620
[40] = tested on: EKVX
[41] = tested on: UACC-62
[42] = tested on: SN12C
[43] = tested on: SNB-75
[44] = tested on: SK-MEL-5
[45] = tested on: SF-268
[46] = tested on: HCT-15
[47] = tested on: OVCAR-8
[48] = tested on: PC-3
[49] = tested on: OVCAR-4
[50] = tested on: NCI-H522
[51] = tested on: MCF7
[52] = tested on: SK-MEL-28
[53] = tested on: BT-549
[54] = tested on: T47D
[55] = tested on: HT-29
[56] = tested on: MOLT-4
[57] = tested on: HCC 2998
[58] = tested on: NCI-H226
[59] = tested on: SF-539

CS(=O)(=O)OC1CN2CCC1CC2 (stereo not given)
GI50 [1]: > 100 µM (inactive) | GI50 [2]: > 100 µM (inactive) | GI50 [3]: > 100 µM (inactive) | GI50 [4]: > 100 µM (inactive) | GI50 [5]: > 100 µM (inactive) | GI50 [6]: > 100 µM (inactive) | GI50 [7]: > 100 µM (inactive) | GI50 [8]: > 100 µM (inactive) | GI50 [9]: > 100 µM (inactive) | GI50 [10]: > 100 µM (inactive) | GI50 [11]: > 100 µM (inactive) | GI50 [12]: > 100 µM (inactive) | GI50 [13]: > 100 µM (inactive) | GI50 [14]: > 100 µM (inactive) | GI50 [15]: > 100 µM (inactive) | GI50 [16]: > 100 µM (inactive) | GI50 [17]: > 100 µM (inactive) | GI50 [18]: > 100 µM (inactive) | GI50 [19]: > 100 µM (inactive) | GI50 [20]: > 100 µM (inactive) | GI50 [21]: > 100 µM (inactive) | GI50 [22]: > 100 µM (inactive) | GI50 [23]: > 100 µM (inactive) | GI50 [24]: > 100 µM (inactive) | GI50 [25]: > 100 µM (inactive) | GI50 [26]: > 100 µM (inactive) | GI50 [27]: > 100 µM (inactive) | GI50 [28]: > 100 µM (inactive) | GI50 [29]: > 100 µM (inactive) | GI50 [30]: > 100 µM (inactive) | GI50 [31]: > 100 µM (inactive) | GI50 [32]: > 100 µM (inactive) | GI50 [33]: > 100 µM (inactive) | GI50 [34]: > 100 µM (inactive) | GI50 [35]: > 100 µM (inactive) | GI50 [36]: > 100 µM (inactive) | GI50 [37]: > 100 µM (inactive) | GI50 [38]: > 100 µM (inactive) | GI50 [39]: > 100 µM (inactive) | GI50 [40]: > 100 µM (inactive) | GI50 [41]: > 100 µM (inactive) | GI50 [42]: > 100 µM (inactive) | GI50 [43]: > 100 µM (inactive) | GI50 [44]: > 100 µM (inactive) | GI50 [45]: > 100 µM (inactive) | GI50 [46]: > 100 µM | GI50 [47]: > 100 µM (inactive) | GI50 [48]: > 100 µM (inactive) | GI50 [49]: > 100 µM (inactive) | GI50 [50]: > 100 µM (inactive) | GI50 [51]: > 100 µM (inactive) | GI50 [52]: > 100 µM (inactive) | GI50 [53]: > 100 µM (inactive) | GI50 [54]: > 100 µM (inactive) | GI50 [55]: > 100 µM (inactive) | GI50 [56]: > 100 µM (inactive)

CC(C)c1cc(Cl)nc(Cl)n1
GI50 [1]: > 100 µM (inactive) | GI50 [2]: > 100 µM (inactive) | GI50 [3]: > 100 µM (inactive) | GI50 [4]: > 100 µM (inactive) | GI50 [5]: > 100 µM (inactive) | GI50 [6]: > 100 µM (inactive) | GI50 [7]: > 100 µM (inactive) | GI50 [8]: > 100 µM (inactive) | GI50 [9]: > 100 µM (inactive) | GI50 [10]: > 100 µM (inactive) | GI50 [11]: > 100 µM (inactive) | GI50 [12]: > 100 µM (inactive) | GI50 [13]: > 100 µM (inactive) | GI50 [14]: > 100 µM (inactive) | GI50 [15]: > 100 µM (inactive) | GI50 [16]: > 100 µM (inactive) | GI50 [17]: > 100 µM (inactive) | GI50 [18]: > 100 µM (inactive) | GI50 [19]: > 100 µM (inactive) | GI50 [20]: > 100 µM (inactive) | GI50 [21]: > 100 µM (inactive) | GI50 [57]: > 100 µM (inactive) | GI50 [23]: > 100 µM (inactive) | GI50 [58]: > 100 µM (inactive) | GI50 [24]: > 100 µM (inactive) | GI50 [25]: > 100 µM (inactive) | GI50 [27]: > 100 µM (inactive) | GI50 [28]: > 100 µM (inactive) | GI50 [30]: > 100 µM (inactive) | GI50 [31]: > 100 µM (inactive) | GI50 [32]: > 100 µM (inactive) | GI50 [33]: > 100 µM (inactive) | GI50 [34]: > 100 µM (inactive) | GI50 [35]: > 100 µM (inactive) | GI50 [36]: > 100 µM (inactive) | GI50 [37]: > 100 µM (inactive) | GI50 [38]: > 100 µM (inactive) | GI50 [39]: > 100 µM (inactive) | GI50 [40]: > 100 µM (inactive) | GI50 [41]: > 100 µM (inactive) | GI50 [42]: > 100 µM (inactive) | GI50 [43]: > 100 µM (inactive) | GI50 [44]: > 100 µM (inactive) | GI50 [45]: > 100 µM (inactive) | GI50 [46]: > 100 µM | GI50 [47]: > 100 µM (inactive) | GI50 [48]: > 100 µM (inactive) | GI50 [59]: > 100 µM (inactive) | GI50 [49]: > 100 µM (inactive) | GI50 [50]: > 100 µM (inactive) | GI50 [51]: > 100 µM (inactive) | GI50 [52]: > 100 µM (inactive) | GI50 [53]: > 100 µM (inactive) | GI50 [54]: > 100 µM (inactive) | GI50 [55]: > 100 µM (inactive) | GI50 [56]: > 100 µM (inactive)

NC(=O)c1ncn2c(=O)n(CCl)nnc12
GI50 [1]: > 100 µM (inactive) | GI50 [2]: 47.9 µM (inactive) | GI50 [3]: > 100 µM (inactive) | GI50 [4]: > 100 µM (inactive) | GI50 [5]: 51.6 µM (inactive) | GI50 [6]: > 100 µM (inactive) | GI50 [7]: 28.2 µM (inactive) | GI50 [8]: 22.4 µM (inactive) | GI50 [9]: > 100 µM (inactive) | GI50 [10]: 85.9 µM (inactive) | GI50 [11]: > 100 µM (inactive) | GI50 [12]: 63.1 µM (inactive) | GI50 [13]: 72.6 µM (inactive) | GI50 [14]: > 100 µM (inactive) | GI50 [15]: > 100 µM (inactive) | GI50 [16]: 50.2 µM (inactive) | GI50 [17]: > 100 µM (inactive) | GI50 [18]: > 100 µM (inactive) | GI50 [19]: > 100 µM (inactive) | GI50 [20]: > 100 µM (inactive) | GI50 [57]: > 100 µM (inactive) | GI50 [22]: > 100 µM (inactive) | GI50 [23]: 48.9 µM (inactive) | GI50 [58]: > 100 µM (inactive) | GI50 [24]: > 100 µM (inactive) | GI50 [25]: > 100 µM (inactive) | GI50 [26]: > 100 µM (inactive) | GI50 [27]: > 100 µM (inactive) | GI50 [28]: 83 µM (inactive) | GI50 [29]: > 100 µM (inactive) | GI50 [30]: > 100 µM (inactive) | GI50 [31]: 15.8 µM (inactive) | GI50 [32]: > 100 µM (inactive) | GI50 [33]: > 100 µM (inactive) | GI50 [34]: > 100 µM (inactive) | GI50 [35]: 24.3 µM (inactive) | GI50 [36]: > 100 µM (inactive) | GI50 [37]: 15.4 µM (inactive) | GI50 [38]: > 100 µM (inactive) | GI50 [39]: 42 µM (inactive) | GI50 [40]: > 100 µM (inactive) | GI50 [41]: 76 µM (inactive) | GI50 [42]: > 100 µM (inactive) | GI50 [43]: > 100 µM (inactive) | GI50 [44]: > 100 µM (inactive) | GI50 [45]: > 100 µM (inactive) | GI50 [46]: 41.4 µM | GI50 [47]: 97.1 µM (inactive) | GI50 [48]: > 100 µM (inactive) | GI50 [59]: 72.8 µM (inactive) | GI50 [49]: > 100 µM (inactive) | GI50 [50]: 96.8 µM (inactive) | GI50 [51]: 49.3 µM (inactive) | GI50 [52]: > 100 µM (inactive) | GI50 [53]: > 100 µM (inactive) | GI50 [54]: 94.2 µM (inactive) | GI50 [55]: 43.2 µM (inactive) | GI50 [56]: > 100 µM (inactive)
